How the values were obtained:
[1] = system: human cancer cell lines; assay: GDSC2 IC50 drug screening of cancer cell lines, divided by cancer gene TVA sub-groups; type: cell-based; details: except for two cell lines in "Strong Drivers" group
Description: Bulk data of “IC50s Drug Screening” was obtained from Genomics of Drug Sensitivity in Cancer website. Bulk mutation data for cell lines was obtained from Cell Model Passports website.
The analysis was focused on pairs of drugs and genetic alterations that met the following criteria in GDSC's database: (i) drug response associated with a cancer gene variant (ii) at least 50 cell lines harboring the cancer gene alteration (iii) effect size above 0.7 (above 0.5 indicates a moderate effect size and above 1 indicates a large effect size) (iv) drug-gene association is statistically significant (false discovery rate (FDR) p-value<0.1) and (v) the drug effect on the mutated protein of associated pathways can explain the association.
For comparison of response to drugs between genes variants' TVA values, samples were binned according to their gene variant TVA score and according to appearance in the drivers' binomial catalogue. Non-drivers were defined as variants absent from the binomial catalogue with TVA≤1.5. This larger TVA value for variants not in the catalog enlarges the number of variants in the non-driver group. […]
Rare pathogenic variants are becoming important in the inter-individual variability in drug response. […] Genomic features and drug response associations were analyzed from GDCS's analysis of variance model that met certain criteria (see Materials and Methods). […]

[2] = system: human cancer cell lines; details: GDSC2; BRAF variants, "Very Strong Drivers" group (includes V600E class I variant) versus all other groups; cited from earlier work

SMILES | association of TVA's sub-groups of BRAF variants with drug response [1] | IC50 of cancer cell lines [2]
CC(C)(C)c1nc(-c2cccc(NS(=O)(=O)c3c(F)cccc3F)c2F)c(-c2ccnc(N)n2)s1 [Dabrafenib] | associated with drug response | 
CCCS(=O)(=O)Nc1ccc(F)c(C(=O)c2c[nH]c3ncc(Cl)cc23)c1F [PLX4720] |  | distinct low IC50
